In assay [1] the target is T1, Menin-M327V (Homo sapiens, UniProt O00255, M322V).
T1 sequence (O00255 1-615 isoform O00255-1 M327V): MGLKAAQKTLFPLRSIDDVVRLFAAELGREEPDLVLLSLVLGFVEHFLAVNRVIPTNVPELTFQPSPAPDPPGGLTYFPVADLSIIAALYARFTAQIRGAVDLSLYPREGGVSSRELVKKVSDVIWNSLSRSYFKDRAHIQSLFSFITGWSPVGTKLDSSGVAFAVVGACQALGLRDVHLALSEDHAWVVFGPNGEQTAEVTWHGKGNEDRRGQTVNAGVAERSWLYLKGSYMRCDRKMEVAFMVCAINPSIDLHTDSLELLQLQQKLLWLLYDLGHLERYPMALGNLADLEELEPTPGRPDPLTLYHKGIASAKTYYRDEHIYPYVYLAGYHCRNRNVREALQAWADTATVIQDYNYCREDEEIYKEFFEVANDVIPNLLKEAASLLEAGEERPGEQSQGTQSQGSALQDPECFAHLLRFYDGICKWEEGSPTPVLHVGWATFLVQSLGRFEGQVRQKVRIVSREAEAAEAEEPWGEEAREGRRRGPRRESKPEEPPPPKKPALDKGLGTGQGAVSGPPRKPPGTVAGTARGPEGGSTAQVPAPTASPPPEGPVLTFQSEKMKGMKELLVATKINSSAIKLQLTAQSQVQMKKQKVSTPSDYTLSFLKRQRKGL
Put plainly: Fluorescence polarization assay of Menin binding to MLL peptide, M327V mutant. The settings on record: FP, 8 nM Menin, 4 nM MLL peptide. The source says:
(§1) • 1. Objective: To evaluate the inhibitory activity of compounds against wild-type Menin protein (Menin-WT) and its mutant variants (Menin-M327V, Menin-M327I, Menin-T349M, Menin-S160T, Menin-S160C, Menin-G331R, and Menin-G331D). • 2. Experimental Principle: The experiment employed fluorescence polarization (FP) to detect the binding of wild-type Menin protein and its mutant variants to MLL peptide. In the absence of inhibitors, binding of wild-type Menin protein and its mutant variants to MLL peptide generates a high FP signal; upon addition of inhibitors, the binding between Menin proteins and MLL peptide is disrupted, resulting in a low FP signal. • 3. Experimental Materials: Final concentration of wild-type Menin protein and its mutant variants: 8 nM; final concentration of MLL peptide: 4 nM. Assay buffer: 50 mM Tris-HCl (pH 8.0), 120 mM NaCl, 0.005% CA-630, 2 mM DTT. • 4. […] The plate was centrifuged at 1000 rpm for 60 seconds. Subsequently, 10 µL of MLL peptide was added to each assay well. The plate was centrifuged at 1000 rpm for 60 seconds and sealed with a sealing membrane. After incubation at 23°C for 60 minutes, the plate was read using a PerkinElmer Envision reader. Data Analysis: [formula]
(§2) Curve fitting: XLFIT software was used for curve fitting, employing a four-parameter logistic model with percent inhibition versus log(compound concentration) as variables.
In general terms: Polarisation of emitted light reports the rotation of a fluorescent probe.

Assay [2] has as its target T2, Menin-M327I (Homo sapiens, UniProt O00255, M322I).
T2 sequence (O00255 1-615 isoform O00255-1 M327I): T1 sequence (O00255 1-615 isoform O00255-1 M327V) with V327I
The assay is described as follows: Fluorescence polarization assay of Menin binding to MLL peptide, M327I mutant. Conditions: FP, 8 nM Menin, 4 nM MLL peptide.
From the text: as §1, §2

Molecules are shown by their SMILES. Positions count from the first letter of the chain named.

Here are results for two compounds from patent EP4775580A1, “COMPOUND, PHARMACEUTICAL COMPOSITION COMPRISING SAME, AND USE THEREOF” (Euregen Biopharma Co., Ltd., priority 2023, dated 2025).

One may read the IC50 as the concentration that gives 50% inhibition. Low readings indicate greater potency in that assay, high ones weaker potency in that assay. With `CCN(C(=O)c1cc(F)ccc1N1CCN([C@@H]2CCN([C@H](CCCN(C)CCOC)C(C)C)C2)c2ncncc21)C(C)C` [Example 3], the IC50 in assay [1] was 49.3 nM; in assay [2] it was 40.7 nM.
The like results for `CCN(C(=O)c1cc(F)ccc1Oc1cncnc1N1CC2(CCN(C[C@H]3CC[C@H](NS(=O)(=O)CC)CC3)CC2)C1)C(C)C` [SNDX-5613, revumenib] were, in that order, 1300 nM and 928 nM.
